Data taken from patent publication USRE50917E1, “Formulations of (s)-3-(4-((4-(morpholinomethyl)benzyl)oxy)-1-oxoisoindolin-2-yl)piperidine-2,6-dione” (Celgene Corporation, priority 2013, dated 2026).
“Also recorded” adds a separate entry of the source.

Key:
[1] = Chemical stability of Compound A towards hydrolysis; format: physicochemical
TNF-α = conditions: LPS-stimulated hPBMC and human whole blood; background statement; cited from earlier work
IL-1β = conditions: LPS-stimulated hPBMC and human whole blood; background statement; cited from earlier work
IL-10 = conditions: LPS-stimulated hPBMC and human whole blood; background statement; cited from earlier work
T cells = conditions: background statement; cited from earlier work

O=C1CC[C@H](N2Cc3c(OCc4ccc(CN5CCOCC5)cc4)cccc3C2=O)C(=O)N1 [Compound A, (S)-3-(4-((4-(morpholinomethyl)benzyl)oxy)-1-oxoisoindolin-2-yl)piperidine-2,6-dione]
Susceptibility to hydrolysis, in words [1]: prone to hydrolysis; also recorded: easily degraded by hydrolysis | Degradation of TNF-α mRNA, in words (TNF-α): enhances | Inhibition of TNF-α, in words (TNF-α): markedly inhibits | Inhibition of IL-1β, in words (IL-1β): potently inhibits | Effect on IL-10, in words (IL-10): stimulates | Co-stimulation of T cells, in words (T cells): potent co-stimulator
